Source: the NIST ThermoML archive (doi:10.1016/j.tca.2009.03.014)

Tests used:
[1] = xn = mol fraction of the nth substance listed; conditions: 308.15 K, 101 kPa, Liquid; for excess molar volume: Direct dilatometry; for speed of sound: Linear variable-path acoustic interferometer
[2] = excess molar enthalpy (molar enthalpy of mixing); xn = mol fraction of the nth substance listed; conditions: 308.15 K, 101 kPa, Liquid, Calvet calorimetry
[3] = 101.33 kPa, Liquid; for mass density: Pycnometric method; for speed of sound: Linear variable-path acoustic interferometer

O=C1CCCN1 [2-pyrrolidinone] + CCO
Conditions	excess molar enthalpy [kcal/mol]	excess molar volume [m3/mol]	speed of sound [m/s]
[1], x1 = 0.0767	–	-9.2e-08	–
[1], x1 = 0.0784	–	–	1172.9
[1], x1 = 0.1393	–	-1.72e-07	–
[1], x1 = 0.1607	–	–	1230.8
[1], x1 = 0.1763	–	-2.15e-07	–
[1], x1 = 0.1963	–	–	1252.8
[1], x1 = 0.2471	–	–	1282.9
[1], x1 = 0.2676	–	-3.07e-07	–
[1], x1 = 0.338	–	–	1327.2
[1], x1 = 0.3493	–	-3.68e-07	–
[1], x1 = 0.3876	–	–	1349.4
[1], x1 = 0.4016	–	-3.94e-07	–
[1], x1 = 0.4337	–	–	1366.5
[1], x1 = 0.4713	–	–	1381
[1], x1 = 0.4865	–	-4.16e-07	–
[1], x1 = 0.5347	–	–	1404.3
[1], x1 = 0.5479	–	-4.13e-07	–
[1], x1 = 0.5985	–	–	1427.8
[1], x1 = 0.6015	–	-3.94e-07	–
[1], x1 = 0.6412	–	–	1444.8
[1], x1 = 0.6573	–	-3.66e-07	–
[1], x1 = 0.7145	–	-3.21e-07	–
[1], x1 = 0.7539	–	–	1492.3
[1], x1 = 0.7982	–	-2.4e-07	–
[1], x1 = 0.8064	–	–	1518.1
[1], x1 = 0.856	–	-1.75e-07	–
[1], x1 = 0.8887	–	–	1559.4
[1], x1 = 0.92	–	-9.7e-08	–
[2], x1 = 0.0647	0.0643	–	–
[2], x1 = 0.1158	0.102	–	–
[2], x1 = 0.2075	0.14	–	–
[2], x1 = 0.2768	0.149	–	–
[2], x1 = 0.338	0.152	–	–
[2], x1 = 0.38	0.148	–	–
[2], x1 = 0.4337	0.14	–	–
[2], x1 = 0.5337	0.118	–	–
[2], x1 = 0.605	0.104	–	–
[2], x1 = 0.6856	0.0834	–	–
[2], x1 = 0.7539	0.0649	–	–
[2], x1 = 0.7929	0.0552	–	–
[2], x1 = 0.8436	0.0455	–	–
[2], x1 = 0.8904	0.0312	–	–

O=C1CCCN1 [2-pyrrolidinone]
[3]
Conditions	mass density [kg/m3]	speed of sound [m/s]
298.15 K	1107.26	–
308.15 K	–	1603

O=C1CCCN1 [2-pyrrolidinone] + CCCO
Conditions	excess molar enthalpy [kcal/mol]	excess molar volume [m3/mol]	speed of sound [m/s]
[1], x1 = 0.0349	–	-2.3e-08	–
[1], x1 = 0.0973	–	-6.7e-08	–
[1], x1 = 0.0982	–	–	1219.3
[1], x1 = 0.1436	–	-1e-07	–
[1], x1 = 0.158	–	–	1240.8
[1], x1 = 0.1968	–	–	1255
[1], x1 = 0.2052	–	-1.38e-07	–
[1], x1 = 0.2654	–	-1.75e-07	–
[1], x1 = 0.2958	–	–	1294.4
[1], x1 = 0.3299	–	-2.08e-07	–
[1], x1 = 0.3309	–	–	1308.9
[1], x1 = 0.3881	–	-2.27e-07	–
[1], x1 = 0.3952	–	–	1336.5
[1], x1 = 0.4485	–	–	1359.7
[1], x1 = 0.4495	–	-2.44e-07	–
[1], x1 = 0.4949	–	–	1380.7
[1], x1 = 0.521	–	–	1391.8
[1], x1 = 0.5246	–	-2.48e-07	–
[1], x1 = 0.5749	–	-2.46e-07	–
[1], x1 = 0.5951	–	–	1425.6
[1], x1 = 0.6516	–	-2.27e-07	–
[1], x1 = 0.6957	–	–	1470.7
[1], x1 = 0.7314	–	–	1485.7
[1], x1 = 0.7453	–	-1.85e-07	–
[1], x1 = 0.7968	–	–	1515.4
[1], x1 = 0.8357	–	-1.29e-07	–
[1], x1 = 0.8982	–	–	1558.4
[1], x1 = 0.9206	–	-6.5e-08	–
[2], x1 = 0.0592	0.0594	–	–
[2], x1 = 0.1085	0.0933	–	–
[2], x1 = 0.1966	0.135	–	–
[2], x1 = 0.2273	0.145	–	–
[2], x1 = 0.3287	0.161	–	–
[2], x1 = 0.3782	0.159	–	–
[2], x1 = 0.4394	0.155	–	–
[2], x1 = 0.495	0.146	–	–
[2], x1 = 0.5219	0.139	–	–
[2], x1 = 0.5951	0.125	–	–
[2], x1 = 0.6622	0.108	–	–
[2], x1 = 0.7539	0.0808	–	–
[2], x1 = 0.8065	0.068	–	–
[2], x1 = 0.8946	0.0396	–	–

CCCCO [butan-1-ol]
[3]
Conditions	mass density [kg/m3]	speed of sound [m/s]
298.15 K	809.5	–
308.15 K	–	1232.2

O=C1CCCN1 [2-pyrrolidinone] + CCCCO
Conditions	excess molar enthalpy [kcal/mol]	excess molar volume [m3/mol]	speed of sound [m/s]
[1], x1 = 0.0632	–	–	1237.1
[1], x1 = 0.0883	–	-6.5e-08	–
[1], x1 = 0.1021	–	-7.6e-08	–
[1], x1 = 0.1176	–	–	1245.9
[1], x1 = 0.186	–	–	1262.9
[1], x1 = 0.2306	–	–	1276.6
[1], x1 = 0.2423	–	-1.47e-07	–
[1], x1 = 0.3298	–	-1.72e-07	–
[1], x1 = 0.3394	–	–	1315.9
[1], x1 = 0.3954	–	–	1338.2
[1], x1 = 0.4003	–	-1.87e-07	–
[1], x1 = 0.4442	–	–	1359
[1], x1 = 0.4536	–	-1.9e-07	–
[1], x1 = 0.4825	–	–	1374.9
[1], x1 = 0.497	–	-1.92e-07	–
[1], x1 = 0.5269	–	-1.88e-07	–
[1], x1 = 0.5453	–	–	1402
[1], x1 = 0.5702	–	–	1412.4
[1], x1 = 0.5855	–	-1.83e-07	–
[1], x1 = 0.6229	–	-1.76e-07	–
[1], x1 = 0.6427	–	–	1441.1
[1], x1 = 0.7154	–	-1.53e-07	–
[1], x1 = 0.7367	–	–	1478
[1], x1 = 0.7617	–	-1.36e-07	–
[1], x1 = 0.8275	–	–	1512.6
[1], x1 = 0.8382	–	-1.02e-07	–
[1], x1 = 0.8826	–	-7.7e-08	–
[1], x1 = 0.9152	–	–	1551
[2], x1 = 0.0824	0.0833	–	–
[2], x1 = 0.1933	0.155	–	–
[2], x1 = 0.2472	0.174	–	–
[2], x1 = 0.3241	0.193	–	–
[2], x1 = 0.3748	0.195	–	–
[2], x1 = 0.4183	0.195	–	–
[2], x1 = 0.4734	0.191	–	–
[2], x1 = 0.5451	0.178	–	–
[2], x1 = 0.5725	0.17	–	–
[2], x1 = 0.6427	0.151	–	–
[2], x1 = 0.7058	0.127	–	–
[2], x1 = 0.7499	0.112	–	–
[2], x1 = 0.8571	0.0658	–	–
[2], x1 = 0.9247	0.0365	–	–

CCCO [propan-1-ol]
[3]
Conditions	mass density [kg/m3]	speed of sound [m/s]
298.15 K	799.28	–
308.15 K	–	1188.2

CCO [ethanol]
[3]
Conditions	mass density [kg/m3]	speed of sound [m/s]
298.15 K	785.08	–
308.15 K	–	1112

CC(C)O [propan-2-ol]
[3], 298.15 K
Conditions	mass density [kg/m3]	speed of sound [m/s]
–	780.98	1135.9

O=C1CCCN1 [2-pyrrolidinone] + CC(C)O
Conditions	excess molar enthalpy [kcal/mol]	excess molar volume [m3/mol]	speed of sound [m/s]
[1], x1 = 0.0825	–	-9.8e-08	–
[1], x1 = 0.0835	–	–	1144.9
[1], x1 = 0.1311	–	-1.54e-07	–
[1], x1 = 0.1329	–	–	1166.9
[1], x1 = 0.1719	–	-1.97e-07	–
[1], x1 = 0.1976	–	–	1196.8
[1], x1 = 0.2365	–	-2.59e-07	–
[1], x1 = 0.2597	–	–	1225.6
[1], x1 = 0.2949	–	-3.07e-07	–
[1], x1 = 0.3244	–	–	1256
[1], x1 = 0.348	–	-3.36e-07	–
[1], x1 = 0.3815	–	–	1283.5
[1], x1 = 0.4267	–	-3.69e-07	–
[1], x1 = 0.4394	–	–	1311.6
[1], x1 = 0.4756	–	-3.81e-07	–
[1], x1 = 0.5031	–	–	1343.3
[1], x1 = 0.5682	–	–	1376.4
[1], x1 = 0.5684	–	-3.74e-07	–
[1], x1 = 0.6159	–	–	1401.1
[1], x1 = 0.6315	–	-3.51e-07	–
[1], x1 = 0.6879	–	–	1439.2
[1], x1 = 0.6921	–	-3.17e-07	–
[1], x1 = 0.7193	–	-2.98e-07	–
[1], x1 = 0.765	–	–	1479.9
[1], x1 = 0.8048	–	-2.29e-07	–
[1], x1 = 0.8223	–	–	1511.6
[1], x1 = 0.8941	–	-1.33e-07	–
[1], x1 = 0.9042	–	–	1553.8
[2], x1 = 0.0841	0.11	–	–
[2], x1 = 0.1776	0.187	–	–
[2], x1 = 0.2315	0.21	–	–
[2], x1 = 0.334	0.226	–	–
[2], x1 = 0.3758	0.227	–	–
[2], x1 = 0.4453	0.218	–	–
[2], x1 = 0.501	0.206	–	–
[2], x1 = 0.6009	0.175	–	–
[2], x1 = 0.6811	0.144	–	–
[2], x1 = 0.7151	0.129	–	–
[2], x1 = 0.7626	0.111	–	–
[2], x1 = 0.8338	0.0822	–	–
[2], x1 = 0.8794	0.0634	–	–
[2], x1 = 0.9223	0.0429	–	–
